Assay results reported in patent publication US9273043B2, “TRPV1 antagonists including dihydroxy substituent and uses thereof” (Purdue Pharma L.P., priority 2011, dated 2016).

Legend:
[1] = biological target: T1, human TRPV1 (Homo sapiens (Human), UniProt Q8NER1); assay: Capsaicin-based assay, Protocol 2, TRPV1/CHO cells (hCAP-CHO), Fluo-4 FLIPR; assay type: cell-based; settings: 100 nM capsaicin, mean ± SEM
Excerpt: The TRPV1/CHO cell line was generated as described below. […] The resulting PCR products were purified from agarose gels using Gel Band Purification Kit (GE Healthcare Bioscience) and were subcloned into pCR-Blunt vector (Invitrogen). The cloned cDNA was fully sequenced using a fluorescent dye-terminator reagent (BigDye Terminator ver3.1 Cycle Sequencing Kit, Applied Biosystems) and ABI Prism 3100 genetic analyzer (Applied Biosystems). The pCR-Blunt vector containing the hTRPV1 cDNA was subjected to restriction digestion with EcoR1. The restriction fragment was subcloned into expression vector pcDNA3.1(-) (Invitrogen) and named pcDNA3.1(-)-hVR1 plasmid. The sequence of the cDNA encoding TRPV1 is available at GenBank accession number AJ277028. […] The cells were transfected with the pcDNA3.1(-)-hVR1 plasmid using FuGENE6 (Roche) according to the manufacturer's protocol. 24 hr after transfection, neomycin-resistant cells were selected using 1 mg/mL G418 (Nacalai Tesque). […] The cells expressing hTRPV1 were cultured in the growth medium supplemented with 1 mg/mL G418. […] Capsaicin-based Assay: […] Subsequently, the cells were loaded by incubation in 0.1 mL of wash buffer containing Fluo-4 at 3 μM final concentration. After 1 hour, the cells were washed twice with 0.2 mL wash buffer and resuspended in 0.1 mL wash buffer. The plates were then transferred to a Fluorescence Imaging Plate Reader (Molecular Devices). Fluorescence intensity was monitored for 15 seconds to establish a baseline. […] The final concentration of the compound was adjusted to range from 100 μM to 1.5625 μM. […] Data were collected over the entire time course and analyzed using Excel and the curve-fitting formula GraphPad Prism.

[2] = biological target: T1, human TRPV1; assay: pH-based assay, Protocol 2, TRPV1/CHO cells (hpH-CHO), Fura-2 Ca2+ influx; assay type: cell-based; settings: pH 5.0-5.1 (H2SO4), mean ± SEM
Method: For Protocol 2, a Chinese Hamster Ovary cell line (CHO) that has been engineered to constitutively express human recombinant TRPV1 was used (TRPV1/CHO cells). The TRPV1/CHO cell line was generated as described below.
TRPV1/CHO cells were seeded in the 96-well clear-bottom black-wall plate (Nunc) at densities of 1-2×10^4 cells/well and grown in 100 μL of culture medium (alpha-MEM supplemented with 10% FBS, 20 mM HEPES, 1 mg/mL geneticin and 1% antibiotic-antimycotic mixed stock solution) for 1-2 days before the experiment.
(1) Culture medium was removed using an 8-channel-pipette (Rainin, USA) from the 96-well plate and the wells were refilled with 100 μL of loading buffer (20 mM HEPES, 115 mM NaCl, 5.4 mM KCl, 0.8 mM MgCl2, 1.8 mM CaCl2, 13.8 mM D-glucose, 2.5 mM probenecid, pH 7.4) containing 5 μM Fura-2 AM (Dojin, Japan).
(2) The 96-well plate was incubated at 37° C. for 45 min.
(3) The loading buffer was removed from each well. The cells were subsequently washed twice with 150 μL of measuring buffer (20 mM HEPES, 115 mM NaCl, 5.4 mM KCl, 0.8 mM MgCl2, 5.0 mM CaCl2, 13.8 mM D-glucose, 0.1% BSA, pH 7.4) (no probenecid). The wells were then refilled with 80 μL of measuring buffer.
(4) After an incubation at 4° C. for 15 min, the 96-well plate was transferred to a model FDSS-3000 plate reader apparatus (Hamamatsu Photonics K.K., Japan).
(5) The Fura-2 fluorescent intensity was monitored at a wavelength of 340 nm and at 380 nm, respectively, at a rate of 0.5 Hz for a total of 240 seconds. After 16 time points (32 sec) of baseline detection, 20 μL of agonist solution was added to each well. The final volume was 100 μL/well.
(6) Fluorescence intensity ratio refers to the fluorescence intensity at 340 nm over the fluorescence intensity at 380 nm at a particular time point. The baseline was set as the average of the fluorescent intensity ratios for the first 16 time points before the addition of agonist solution. The maximum response was the highest fluorescent intensity ratio during the 60 time points following addition of agonist solution.
(7) Maximal signal ratios from each well were calculated as output data using the FDSS-3000 analysis program. Data were analyzed using Excel (Microsoft) and XLfit (idbs) software.
In an “agonist plate,” two different agonist solutions with different H2SO4 concentrations were used for the pH assay (see, e.g., FIG. 3A of U.S. Patent Application Publication No. US 2009/0170868 A1). For the first half of a 96-well plate one agonist solution was used; for the second half the other agonist solution was used. The agonist solutions were obtained by diluting sulfuric acid (1M H2SO4) with measuring buffer. The concentrations for the two agonist solutions were determined as described above in Section 2 of Protocol 2.
The sulfuric acid concentrations between the two agonist solutions differed by 0.5 mM. In the experiment described in Section 2 of Protocol 2, the sulfuric acid concentrations in the agonist solutions were determined to be 16 mM and 16.5 mM, respectively. After 1:4 dilution of the agonist solutions, the final sulfuric acid concentration was 3.2 mM and 3.3 mM, respectively. The resulting pH value for the pH assay was 5.0 to 5.1.
Test compounds were dissolved in DMSO to yield 1 mM stock solutions. The stock solutions were further diluted using DMSO in […] serial dilution steps with 6 points (1000, 250, 62.5, 15.625, 3.9062, and 0.977 μM). The thereby-obtained solutions were further diluted in measuring buffer (1:100) as 10× stock serial dilutions with a DMSO concentration of 1%. 10 μL of a 10× stock was added into each well of an “antagonist plate” (see step 3.3.(4) below). Thus, the final concentrations of antagonists was as follows: 0.977, 3.906, 15.63, 62.5, 250, and 1000 nM containing 0.1% DMSO (see, e.g., FIG. 3B of U.S. Patent Application Publication No. US 2009/0170868 A1).
Steps (1) and (2) of this Assay were the same as steps 2.2.(1) and 2.2.(2), respectively, of Protocol 2. […]

T1 sequence (Q8NER1 whole entry, looked up, the tested form may be a part): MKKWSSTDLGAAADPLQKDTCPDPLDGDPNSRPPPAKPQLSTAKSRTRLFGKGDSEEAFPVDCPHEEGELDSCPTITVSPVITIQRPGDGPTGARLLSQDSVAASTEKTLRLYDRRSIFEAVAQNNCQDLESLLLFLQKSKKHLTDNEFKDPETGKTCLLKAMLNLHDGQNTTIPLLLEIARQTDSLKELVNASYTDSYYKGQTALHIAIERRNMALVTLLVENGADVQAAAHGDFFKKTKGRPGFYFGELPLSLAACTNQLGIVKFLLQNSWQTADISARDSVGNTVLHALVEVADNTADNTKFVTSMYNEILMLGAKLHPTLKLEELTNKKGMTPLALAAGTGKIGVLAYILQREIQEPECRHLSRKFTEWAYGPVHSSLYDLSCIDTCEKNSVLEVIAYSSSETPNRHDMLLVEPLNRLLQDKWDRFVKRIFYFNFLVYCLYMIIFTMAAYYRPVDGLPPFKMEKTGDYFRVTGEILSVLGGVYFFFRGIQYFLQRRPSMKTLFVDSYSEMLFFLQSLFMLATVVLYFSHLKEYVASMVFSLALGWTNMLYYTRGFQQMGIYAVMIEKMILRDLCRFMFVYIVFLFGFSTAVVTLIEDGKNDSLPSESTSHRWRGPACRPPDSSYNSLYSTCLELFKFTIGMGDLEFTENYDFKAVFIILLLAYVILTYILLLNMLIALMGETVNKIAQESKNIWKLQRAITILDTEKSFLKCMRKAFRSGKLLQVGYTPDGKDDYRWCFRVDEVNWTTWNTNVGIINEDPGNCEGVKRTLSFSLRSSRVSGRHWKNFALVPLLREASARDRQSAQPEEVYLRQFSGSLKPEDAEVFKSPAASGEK

Row | SMILES | IC50 [1] [nM] | IC50 [2] [nM]
1 | C[C@H]1CN(C(=O)Nc2nc3ccccc3s2)CCN1c1ncc([C@H](O)CO)cc1F [A122(c), (S)—N-(benzo[d]thiazol-2-yl)-4-{5-[(S)-1,2-dihydroxyethyl]-3-fluoropyridin-2-yl}-3-methylpiperazine-1-carboxamide] | 178 ± 29 | 553 ± 12
2 | C[C@@H]1CN(C(=O)Nc2nc3cc(F)ccc3s2)CCN1c1ncc([C@H](O)CO)cc1F [A155(b), (R)-4-{5-[(S)-1,2-dihydroxyethyl]-3-fluoropyridin-2-yl}-N-(5-fluorobenzo[d]thiazol-2-yl)-3-methylpiperazine-1-carboxamide] | 216 ± 57 | 134 ± 16
3 | C[C@H](O)[C@@H](O)c1cnc(N2CCN(C(=O)Nc3nc4ccccc4s3)C[C@@H]2C)c(F)c1 [B122(k), (S)—N-(benzo[d]thiazol-2-yl)-4-{5-[(1S,2S)-1,2-dihydroxypropyl]-3-fluoropyridin-2-yl}-3-methylpiperazine-1-carboxamide] | 502 ± 128 | 2040 ± 245
4 | Cc1ccc2nc(NC(=O)N3CCN(c4ncc([C@@H](O)CO)cc4F)C[C@H]3C)sc2c1 [A126(e), (R)-4-(5-((R)-1,2-dihydroxyethyl)-3-fluoropyridin-2-yl)-2-methyl-N-(6-methylbenzo[d]thiazol-2-yl)piperazine-1-carboxamide] | 18.2 ± 2.9 | 0.4
5 | C[C@@H]1CN(C(=O)Nc2nc3ccccc3s2)CCN1c1ncc([C@@H](O)[C@@H](C)O)cc1F [B122(o), (R)—N-(benzo[d]thiazol-2-yl)-4-{5-[(1R,2R)-1,2-dihydroxypropyl]-3-fluoropyridin-2-yl}-3-methylpiperazine-1-carboxamide] | 199 ± 38 | 6880
6 | C[C@@H]1CN(c2ncc([C@@H](O)CO)cc2F)CCN1C(=O)Nc1nc2ccc(Cl)cc2s1 [A123(e), (R)—N-(6-chlorobenzo[d]thiazol-2-yl)-4-(5-((R)-1,2-dihydroxyethyl)-3-fluoropyridin-2-yl)-2-methylpiperazine-1-carboxamide] | 11.5 ± 1.4 | 0.4

Other lines, results leading:

Row | IC50 [1] [nM] | IC50 [2] [nM] | SMILES
7 | 506 ± 155 | 1020 | C[C@@H](O)[C@H](O)c1cnc(N2CCN(C(=O)Nc3nc4ccccc4s3)C[C@@H]2C)c(F)c1 [B122(p), (S)—N-(benzo[d]thiazol-2-yl)-4-{5-[(1R,2R)-1,2-dihydroxypropyl]-3-fluoropyridin-2-yl}-3-methylpiperazine-1-carboxamide]
8 | 309 ± 105 | 398 ± 152 | C[C@@H]1CN(C(=O)Nc2nc3ccc(F)cc3s2)CCN1c1ncc([C@@H](O)[C@@H](C)O)cc1F [B125(o), (R)-4-{5-[(1R,2R)-1,2-dihydroxypropyl]-3-fluoropyridin-2-yl}-N-(6-fluorobenzo[d]thiazol-2-yl)-3-methylpiperazine-1-carboxamide]
9 | 194 ± 49 | 303 | C[C@H](O)[C@@H](O)c1cnc(N2CCN(C(=O)Nc3nc4ccc(F)cc4s3)C[C@H]2C)c(F)c1 [B125(j), (R)-4-{5-[(1S,2S)-1,2-dihydroxypropyl]-3-fluoropyridin-2-yl}-N-(6-fluorobenzo[d]thiazol-2-yl)-3-methylpiperazine-1-carboxamide]
10 | 249 ± 34 | 1230 ± 595 | C[C@@H]1CN(C(=O)Nc2nc3cc(F)ccc3s2)CCN1c1ncc([C@@H](O)[C@@H](C)O)cc1F [B155(o), (R)-4-{5-[(1R,2R)-1,2-dihydroxypropyl]-3-fluoropyridin-2-yl}-N-(5-fluorobenzo[d]thiazol-2-yl)-3-methylpiperazine-1-carboxamide]
11 | 146 ± 52 | 171 ± 29 | C[C@@H]1CN(C(=O)Nc2nc3cc(F)c(F)cc3s2)CCN1c1ncc([C@@H](O)[C@@H](C)O)cc1F [B158(o), (R)—N-(5,6-difluorobenzo[d]thiazol-2-yl)-4-{5-[(1R,2R)-1,2-dihydroxypropyl]-3-fluoropyridin-2-yl}-3-methylpiperazine-1-carboxamide]
